Source: patent publication US5514694A, “Peptidyl ketoamides” (Georgia Tech Research Corp, priority 1993, dated 1996)
Where two headings read alike, the source gives them in different places.

Key:
Assay type in all cases: biochemical
[1] = biological target: T1, human leukocyte elastase (HLE) (Homo sapiens, UniProt P08246); test: HLE inhibition, MeO-Suc-Ala-Ala-Pro-Val-NA hydrolysis; settings: for IC50: Table 4, Z-Leu--AA--CONH-R; for Ki: Table 4, in brackets under the IC50
T1 sequence (P08246 30-267): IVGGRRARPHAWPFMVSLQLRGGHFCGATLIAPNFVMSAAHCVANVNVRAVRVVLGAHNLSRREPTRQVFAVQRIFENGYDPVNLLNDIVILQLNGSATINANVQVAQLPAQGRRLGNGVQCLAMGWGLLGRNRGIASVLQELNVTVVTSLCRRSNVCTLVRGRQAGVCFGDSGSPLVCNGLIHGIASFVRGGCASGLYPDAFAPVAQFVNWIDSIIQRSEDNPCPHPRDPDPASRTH
Method: (§1) Peptide α-ketoamides were assayed as reversible enzyme inhibitors. Various concentrations of inhibitors in Me2 SO were added to the assay mixture which contained buffer and substrate. The reaction was started by the addition of the enzyme and the hydrolysis rates were followed spectrophotometrically or fluorimetrically.
(§2) A 0.1M Hepes, 0.5M NaCl, pH 7.5 buffer was utilized for human leukocyte elastase (HLE), porcine pancreatic elastase (PPE), chymotrypsin and cathepsin G. A 0.1 Hepes, 0.01 M CaCl2, pH 7.5 buffer was utilized for trypsin, plasmin, and coagulation enzymes. A 50 mM Tris.HCl, 2 mM EDTA, 5 mM cysteine, pH 7.5 was used as a buffer for papain. A 88 mM KH2 PO4, 12 mM Na2 HPO4, 1.33 mM EDTA, 2.7 mM cysteine, pH 6.0 solution was used as a buffer for cathepsin B. A 20 mM Hepes, 10 mM CaCl2, 10 mM mercatoethanol, pH 7.2 buffer was utilized for calpain I and calpain II.
(§3) HLE and PPE were assayed with MeO-Suc-Ala-Ala-Pro-Val-NA and Suc-Ala-Ala-Ala-NA, respectively Nakajima et al., J. Biol. Chem. 254, 4027-4032 (1979); incorporated herein by reference!. Human leukocyte cathepsin G and chymotrypsin Aα were assayed with Suc-Val-Pro-Phe-NA Tanaka et al., Biochemistry 24, 2040-2047 (1985); incorporated herein by reference!. The hydrolysis of peptide 4-nitroanilides was measured at 410 nm ε410 =8800 M^-1 cm^-1; Erlanger et al., Arch. Biochem. Biophys. 95, pp 271-278 (1961); incorporated herein by reference!. Trypsin, thrombin, human plasma kallikrein, porcine pancreatic kallikrein, human factor XIa, and human plasmin were assayed with Z-Arg-SBzl or Z-Gly-Arg-SBu-i McRae et al., Biochemistry 20, 7196-7206 (1981); incorporated herein by reference!. All peptide thioester hydrolysis rates were measured with assay mixtures containing 4,4'-dithiodipyridine ε324 =19800 M^-1 cm^-1; Grasetti & Murray, Arch. Biochem. Biophys. 119, 41-49 (1967); incorporated herein by reference!.

[2] = biological target: T2, Human leukocyte cathepsin G (Homo sapiens, UniProt P08311); test: Cathepsin G inhibition, Suc-Val-Pro-Phe-NA hydrolysis; settings: Table 4, Z-Leu--AA--CONH-R
T2 sequence (P08311 21-255): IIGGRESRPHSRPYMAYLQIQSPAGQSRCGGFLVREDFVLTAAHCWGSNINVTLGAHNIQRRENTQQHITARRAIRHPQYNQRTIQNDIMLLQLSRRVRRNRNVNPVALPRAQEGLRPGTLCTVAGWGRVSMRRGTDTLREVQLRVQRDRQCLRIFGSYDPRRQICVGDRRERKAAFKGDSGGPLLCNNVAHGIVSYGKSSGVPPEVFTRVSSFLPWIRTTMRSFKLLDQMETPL
Method: as §1, §2, §3

[3] = biological target: T3, Calpain I from human erythrocytes (Homo sapiens, UniProt P07384); test: Calpain I inhibition, Suc-Leu-Tyr-AMC hydrolysis (KI); settings: read-out: KI Cal I
T3 construct: Calpain I was purified from human erythrocytes; from tissue; host or cells: human erythrocytes
T3 sequence (P07384 1-714): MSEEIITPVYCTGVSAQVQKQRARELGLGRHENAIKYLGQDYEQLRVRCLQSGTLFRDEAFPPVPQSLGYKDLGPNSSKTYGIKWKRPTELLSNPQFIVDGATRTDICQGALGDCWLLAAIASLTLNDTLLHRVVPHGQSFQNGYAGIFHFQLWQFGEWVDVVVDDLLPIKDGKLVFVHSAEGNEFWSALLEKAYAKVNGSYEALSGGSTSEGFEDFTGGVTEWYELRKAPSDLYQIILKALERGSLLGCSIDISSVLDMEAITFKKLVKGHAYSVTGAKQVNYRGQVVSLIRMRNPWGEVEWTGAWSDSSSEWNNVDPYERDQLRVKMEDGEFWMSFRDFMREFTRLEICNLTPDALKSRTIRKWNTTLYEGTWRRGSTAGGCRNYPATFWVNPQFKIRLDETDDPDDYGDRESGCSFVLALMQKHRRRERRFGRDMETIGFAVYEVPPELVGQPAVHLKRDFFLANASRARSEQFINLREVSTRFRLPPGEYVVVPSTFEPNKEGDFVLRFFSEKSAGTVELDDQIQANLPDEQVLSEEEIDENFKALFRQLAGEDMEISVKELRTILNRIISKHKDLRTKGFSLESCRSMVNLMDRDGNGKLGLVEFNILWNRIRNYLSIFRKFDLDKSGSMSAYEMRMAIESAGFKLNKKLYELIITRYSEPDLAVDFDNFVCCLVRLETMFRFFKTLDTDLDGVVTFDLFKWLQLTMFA
T3 sequence (P04632 1-268 partner): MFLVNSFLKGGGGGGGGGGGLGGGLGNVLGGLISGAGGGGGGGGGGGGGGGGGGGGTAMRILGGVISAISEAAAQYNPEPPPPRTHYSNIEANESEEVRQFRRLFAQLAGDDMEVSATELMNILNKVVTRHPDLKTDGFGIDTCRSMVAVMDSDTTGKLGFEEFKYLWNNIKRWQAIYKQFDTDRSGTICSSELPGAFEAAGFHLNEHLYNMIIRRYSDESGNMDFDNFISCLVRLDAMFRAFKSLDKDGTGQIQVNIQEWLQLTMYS
Method in brief: (§4)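 Human erythrocyte calpain I and rabbit calpain II were followed by fluorimetric AMC release from Suc-Leu-Tyr-AMC at pH 8.0 (25 mM Tris, 10 mM CaCl2). Cathepsin B was run at pH 5.2 with 0.5 mM DTT on a p-nitroanilide substrate, or with Z-Arg-Arg-AFC (ex 400/em 505 nm). Enzyme was added last, and KI was taken from Dixon or Lineweaver-Burk analysis.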

cathepsin B = biological target: T4, cathepsin B (Homo sapiens, UniProt P07858); test: Cathepsin B inhibition (KI); settings: Table 2, Z-Leu--AA--CONH--CH2 CH(OH)-R; read-out: KI Cat B
T4 construct: purchased Sigma
Method in brief: as §4

calpain II from rabbit = test: Calpain II inhibition, Suc-Leu-Tyr-AMC hydrolysis (KI); settings: Table 2, Z-Leu--AA--CONH--CH2 CH(OH)-R; read-out: KI Cal II
Method in brief: as §4

[4] = Table 2, Z-Leu--AA--CONH--CH2 CH(OH)-R

**Q.** Which results are given for CC[C@H](NC(=O)[C@H](CC(C)C)NC(=O)OCc1ccccc1)C(=O)C(=O)NCC(O)c1ccc(N(C)C)cc1 (stereo partly drawn) [Z-Leu-Abu-CONH--CH2 CH(OH)C6 H4 (4-N(CH3)2)]?
**A.** IC50 [1]: 18 µM; Ki [1]: 19 µM; IC50 [2]: > 204 µM; Ki [3, 4]: 0.33 µM

**Q.** CCC(NC(=O)C(CC(C)C)NC(=O)OCc1ccccc1)C(=O)C(=O)NCC(O)c1cccc(C(F)(F)F)c1 (stereo not drawn) [Z-Leu-Abu-CONH-CH2 CH(OH)-C6 H4 (3-CF3), Z-Leu-Abu-CONH--CH2 CH(OH)C6 H4 (3-CF3)] was tested. Which IC50 [1] did it give?
**A.** 11 µM

**Q.** What about the Ki [1] of the same compound?
**A.** 9 µM

**Q.** What about the IC50 [2] of the same compound?
**A.** > 204 µM

**Q.** What about the Ki [3, 4] of the same compound?
**A.** 0.35 µM

**Q.** Which IC50 [1] does the source give for CC(C)CC(NC(=O)OCc1ccccc1)C(=O)NC(Cc1ccccc1)C(=O)C(=O)NCCCN1CCOCC1 (stereo not drawn) [Z-Leu-Phe-CONH-(CH2)3 -4-morpholinyl, Z-Leu-Phe-CONH--(CH2)3 -4-Morpholinyl] here?
**A.** > 222 µM

**Q.** And the IC50 [2]?
**A.** 136 µM

**Q.** And the Ki ([3]; Table 1, Z-Leu--AA--CONHR)?
**A.** 0.22 µM

**Q.** What does the source list for CC(C)C[C@H](NC(=O)OCc1ccccc1)C(=O)N[C@@H](Cc1ccccc1)C(=O)C(=O)NCC(O)c1ccc(N(C)C)cc1 (stereo partly drawn) [Z-Leu-Phe-CONH--CH2 CH(OH)C6 H4 (4-N(CH3)2)]?
**A.** IC50 [1]: 28 µM; IC50 [2]: 58 µM; Ki [3, 4]: 0.62 µM

**Q.** CC(C)C[C@H](NC(=O)OCc1ccccc1)C(=O)N[C@@H](Cc1ccccc1)C(=O)C(=O)NCC(O)c1cccc(Oc2cccc(C(F)(F)F)c2)c1 (stereo partly drawn) [Z-Leu-Phe-CONH--CH2 CH(OH)C6 H4 -3-OC6 H4 (3-CF3)] was tested. Which IC50 [1] did it give?
**A.** 70 µM

**Q.** And the IC50 [2]?
**A.** 80 µM

**Q.** What about the Ki [3, 4] of the same compound?
**A.** 0.18 µM

**Q.** CC(C)C[C@H](NC(=O)OCc1ccccc1)C(=O)N[C@@H](Cc1ccccc1)C(=O)C(=O)NCC(O)c1ccccc1 (stereo partly drawn) [Z-Leu-Phe-CONH-CH2 CH(OH)-Ph, Z-Leu-Phe-CONH--CH2 CH(OH)Ph] was tested. Which IC50 [1] did it give?
**A.** 44 µM

**Q.** What about the Ki (cathepsin B) of the same compound?
**A.** 2.1 µM

**Q.** And the IC50 [2]?
**A.** 102 µM

**Q.** And the Ki [3, 4]?
**A.** 1.3 µM

**Q.** And the Ki (calpain II from rabbit)?
**A.** 0.05 µM
